# Data reported in patent US20260125382A1, “COMPOUNDS FOR INHIBITING OR DEGRADING CDK2 AND/OR CDK9 AND MEDICINAL USE THEREOF” (KOREA RESEARCH INSTITUTE OF CHEMICAL TECHNOLOGY, priority 2022, published 2026).
# Legend:
# CDK2 = molecular target: T1, CDK2 (Homo sapiens, UniProt P24941); assay: CDK protein degradation activity (Western blotting), CDK2; assay type: cell-based; conditions: MDA-MB-231 cells, 16 hours, Western blot
# T1 construct: endogenous in cells; host or cells: MDA-MB-231
# How it was run: (§1)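 Degradation is judged from CDK2 and CDK9 band intensity relative to tubulin and DMSO-treated cells, after 16 h exposure of MDA-MB-231 cells to three compound concentrations (100 nM, 1 μM, 10 μM).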
# CDK9 = molecular target: T2, CDK9 (Homo sapiens, UniProt P50750); assay: CDK protein degradation activity (Western blotting), CDK9; assay type: cell-based; conditions: MDA-MB-231 cells, 16 hours, Western blot
# T2 construct: endogenous in cells; host or cells: MDA-MB-231
# T2 sequence (P50750 whole entry): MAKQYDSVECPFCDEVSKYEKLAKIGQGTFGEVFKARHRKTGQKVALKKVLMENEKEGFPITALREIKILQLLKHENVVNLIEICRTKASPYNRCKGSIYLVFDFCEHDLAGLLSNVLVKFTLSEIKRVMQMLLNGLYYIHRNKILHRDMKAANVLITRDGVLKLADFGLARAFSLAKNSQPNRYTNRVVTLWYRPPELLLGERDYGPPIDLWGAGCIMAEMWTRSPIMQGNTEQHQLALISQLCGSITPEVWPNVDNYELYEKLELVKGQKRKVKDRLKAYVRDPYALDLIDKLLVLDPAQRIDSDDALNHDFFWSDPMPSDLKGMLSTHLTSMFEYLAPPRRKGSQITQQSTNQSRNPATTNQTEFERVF
# How it was run: as §1
Enzyme degradation CDK2 (% remaining) @ 0.1 μM (CDK2),Enzyme degradation CDK2 (% remaining) @ 1 μM (CDK2),Enzyme degradation CDK2 (% remaining) @ 10 μM (CDK2),Enzyme degradation CDK9 (% remaining) @ 0.1 μM (CDK9),Enzyme degradation CDK9 (% remaining) @ 1 μM (CDK9),Enzyme degradation CDK9 (% remaining) @ 10 μM (CDK9),SMILES
100%,50%,50%,70%,10%,10%,"O=C1CC[C@H](N2C(=O)c3ccc(N4CC(C(=O)N5CCN(C6CCN(c7ccc(Nc8ncnc9c8ncn9C8CC(NC(=O)Cc9ccccc9)C8)cc7)CC6)CC5)C4)cc3C2=O)C(=O)N1 (stereo partly drawn) [Compound 364, N-((1s,3s)-3-(6-((4-(4-(4-(1-(2-(2,6-dioxopiperidin-3-yl)-1,3-dioxoisoindolin-5-yl)azetidin-3-carbonyl)piperazin-1-yl)piperidin-1-yl)phenyl)amino)-9H-purin-9-yl)cyclobutyl)-2-phenylacetamide]"
60/60/60%,60/60/60%,60/60/60%,30%,10%,10%,"O=C1CC[C@H](N2C(=O)c3ccc(N4CCC(C(=O)N5CCN(C6CCN(c7ccc(Nc8ncnc9c8ncn9C8CC(NC(=O)Cc9ccccc9)C8)cc7)CC6)CC5)CC4)cc3C2=O)C(=O)N1 (stereo partly drawn) [Compound 365, N-((1s,3s)-3-(6-((4-(4-(4-(1-(2-(2,6-dioxopiperidin-3-yl)-1,3-dioxoisoindolin-5-yl)piperidin-4-carbonyl)piperazin-1-yl)piperidin-1-yl)phenyl)amino)-9H-purin-9-yl)cyclobutyl)-2-phenylacetamide]"
10%,0%,0%,10%,0%,0%,"O=C1CC[C@H](N2C(=O)c3ccc(N4CCC(C(=O)N5CCN(CCCC6CCN(c7ccc(Nc8ncnc9c8ncn9[C@H]8C[C@@H](NC(=O)Cc9ccccc9)C8)cc7)CC6)CC5)CC4)cc3C2=O)C(=O)N1 [Compound 367, N-((1s,3s)-3-(6-((4-(4-(3-(4-(1-(2-(2,6-dioxopiperidin-3-yl)-1,3-dioxoisoindolin-5-yl)piperidin-4-carbonyl)piperazin-1-yl)propyl)piperidin-1-yl)phenyl)amino)-9H-purin-9-yl)cyclobutyl)-2-phenylacetamide]"
0/0/0%,0/0/0%,0/0/0%,0/0/0%,0/0/0%,0/0/0%,"O=C1CC[C@H](n2nnc3ccc(N4CCN(CC5CCN(c6ccc(Nc7ncnc8c7ncn8C7CC(NC(=O)c8c(Cl)cccc8Cl)C7)cc6)CC5)CC4)cc3c2=O)C(=O)N1 (stereo partly drawn) [Compound 370, 2,6-dichloro-N-((1s,3s)-3-(6-((4-(4-((4-(3-(2,6-dioxopiperidin-3-yl)-4-oxo-3,4-dihydrobenzo[d][1,2,3]triazin-6-yl)piperazin-1-yl)methyl)piperidin-1-yl)phenyl)amino)-9H-purin-9-yl)cyclobutyl)benzamide]"
0/0/0%,0/0/0%,0/0/0%,0/0/0%,0/0/0%,0/0/0%,"O=C1CC[C@H](n2nnc3ccc(N4CCC(CN5CCN(c6ccc(Nc7ncnc8c7ncn8C7CC(NC(=O)c8c(Cl)cccc8Cl)C7)cc6)CC5)CC4)cc3c2=O)C(=O)N1 (stereo partly drawn) [Compound 371, 2,6-dichloro-N-((1s,3s)-3-(6-((4-(4-((1-(3-(2,6-dioxopiperidin-3-yl)-4-oxo-3,4-dihydrobenzo[d][1,2,3]triazin-6-yl)piperidin-4-yl)methyl)piperazin-1-yl)phenyl)amino)-9H-purin-9-yl)cyclobutyl)benzamide]"
90%,50%,50%,0/0/0%,0/0/0%,0/0/0%,"O=C1CC[C@H](N2C(=O)c3ccc(N4CC(C(=O)N5CCC(CCCN6CCN(c7ccc(Nc8ncnc9c8ncn9C8CC(NC(=O)Cc9ccccc9)C8)cc7)CC6)CC5)C4)cc3C2=O)C(=O)N1 (stereo partly drawn) [Compound 372, N-((1s,3s)-3-(6-((4-(4-(3-(1-(1-(2-(2,6-dioxopiperidin-3-yl)-1,3-dioxoisoindolin-5-yl)azetidin-3-carbonyl)piperidin-4-yl)propyl)piperazin-1-yl)phenyl)amino)-9H-purin-9-yl)cyclobutyl)-2-phenylacetamide]"
30/30/30%,30/30/30%,30/30/30%,40%,20%,20%,"O=C1CC[C@H](N2C(=O)c3ccc(N4CC(C(=O)N5CCN(C6CN(c7ccc(Nc8ncnc9c8ncn9[C@H]8C[C@@H](NC(=O)Cc9ccccc9)C8)cc7)C6)CC5)C4)cc3C2=O)C(=O)N1 [Compound 373, N-((1s,3s)-3-(6-((4-(3-(4-(1-(2-(2,6-dioxopiperidin-3-yl)-1,3-dioxoisoindolin-5-yl)azetidin-3-carbonyl)piperazin-1-yl)azetidin-1-yl)phenyl)amino)-9H-purin-9-yl)cyclobutyl)-2-phenylacetamide]"
30%,30%,50%,30%,20%,20%,"O=C1CCC(N2C(=O)c3ccc(N4CC(C(=O)N5CCN(C6CN(c7ccc(Nc8ncnc9c8ncn9[C@H]8C[C@@H](NC(=O)Cc9ccccc9)C8)cc7)C6)CC5)C4)cc3C2=O)C(=O)N1 (stereo partly drawn) [Compound 374, N-((1s,3s)-3-(6-((4-(3-(4-(1-(2-(2,6-dioxopiperidin-3-yl)-1,3-dioxoisoindolin-5-yl)azetidin-3-carbonyl)piperazin-1-yl)azetidin-1-yl)phenyl)amino)-9H-purin-9-yl)cyclobutyl)-2-phenylacetamide]"
30%,10%,10%,30%,10%,10%,"O=C1CC[C@H](N2C(=O)c3ccc(N4CC(CN5CCC(CCN6CCN(c7ccc(Nc8ncnc9c8ncn9[C@H]8C[C@@H](NC(=O)Cc9ccccc9)C8)cc7)CC6)CC5)C4)cc3C2=O)C(=O)N1 [Compound 375, N-((1s,3s)-3-(6-((4-(4-(2-(1-((1-(2-(2,6-dioxopiperidin-3-yl)-1,3-dioxoisoindolin-5-yl)azetidin-3-yl)methyl)piperidin-4-yl)ethyl)piperazin-1-yl)phenyl)amino)-9H-purin-9-yl)cyclobutyl)-2-phenylacetamide]"
30/30/30%,30/30/30%,30/30/30%,10/10/10%,10/10/10%,10/10/10%,"O=C1CC[C@H](N2C(=O)c3ccc(N4CCC(C(=O)N5CCC6(CC5)CC(N5CCN(c7ccc(Nc8ncnc9c8ncn9[C@H]8C[C@@H](NC(=O)c9c(Cl)cccc9Cl)C8)cc7)CC5)C6)CC4)cc3C2=O)C(=O)N1 [Compound 376, 2,6-dichloro-N-((1s,3s)-3-(6-((4-(4-(7-(1-(2-(2,6-dioxopiperidin-3-yl)-1,3-dioxoisoindolin-5-yl)piperidin-4-carbonyl)-7-azaspiro[3.5]nonan-2-yl)piperazin-1-yl)phenyl)amino)-9H-purin-9-yl)cyclobutyl)benzamide]"
20%,10%,10%,0/0/0%,0/0/0%,0/0/0%,"Cc1cccc(C(=O)N[C@H]2C[C@@H](n3cnc4c(Nc5ccc(N6CCN(CC7CCN(c8cc9c(cc8F)C(=O)N([C@H]8CCC(=O)NC8=O)C9=O)CC7)CC6)cc5)ncnc43)C2)n1 [Compound 377, N-((1s,3s)-3-(6-((4-(4-((1-(2-(2,6-dioxopiperidin-3-yl)-6-fluoro-1,3-dioxoisoindolin-5-yl)piperidin-4-yl)methyl)piperazin-1-yl)phenyl)amino)-9H-purin-9-yl)cyclobutyl)-6-methylpicolinamide]"
10/10/10%,10/10/10%,10/10/10%,0/0/0%,0/0/0%,0/0/0%,"Cc1cccc(C(=O)NC2CC(n3cnc4c(Nc5ccc(N6CCN(CC7CCN(c8ccc9nnn([C@H]%10CCC(=O)NC%10=O)c(=O)c9c8)CC7)CC6)cc5)ncnc43)C2)n1 (stereo partly drawn) [Compound 378, N-((1s,3s)-3-(6-((4-(4-((1-(3-(2,6-dioxopiperidin-3-yl)-4-oxo-3,4-dihydrobenzo[d][1,2,3]triazin-6-yl)piperidin-4-yl)methyl)piperazin-1-yl)phenyl)amino)-9H-purin-9-yl)cyclobutyl)-6-methylpicolinamide]"
